Tests used:
PC12-HS cells [1] = experiment: Evaluation A: neurocyte (cell)-growth-promoting action, ALAMAR BLUE; format: cell-based, rat; settings: for Cell survival percentage (%): cell-growth promotion; for optimum concentration for exhibiting cell-growth-promoting action: from Table 9
Description: Then, the effects of test samples were judged as follows:
The relative value of 140 to 199: Equivalent effect to that of NK-4, symbol (∘); The relative value of 200 or higher: Stronger effect than that of NK-4, symbol ([…]). • The results are in Table 6.
The relative fluorescent intensity of each well was determined by using the fluorescent intensity of each well with cells, which had been cultured by admixing with D-MEM medium containing 10% by volume of FBS without any of the compounds, and the intensity of the resulting culture was regarded as 100%. The results are expressed as cell survival percentages (%) in Table 9. […]
The test was conducted twice for each test sample in a triplicate manner and the data were averaged.
Seven compounds as in Table 17, NK-234, NK-26, NK-9815, NK-9694, NK-28 and NK-147 as well as NK-4, were each dissolved in DMSO to give a concentration of 5 mg/ml. […] The test was conducted twice for each test sample in a triplicate manner and the data were averaged.

[2] = system: primary neuron (neuron, astrocyte and microglia) prepared from brain cortex of a rat fetus; experiment: Amyloid β fragment disorder in primary neuron; format: cell-based; settings: concrete data not shown
Excerpt: Though concrete data is not shown, using primary neuron (neuron, astrocyte and microglia) prepared from brain cortex of a rat fetus in place of PC12-HS cells, the influence of NK-4, NK-26, NK-234, NK-19 and NK-150 on amyloid β fragment disorder and hydrogen peroxide disorder was investigated.

[3] = system: hamsters with cerebellar ataxia; experiment: Slant tolerance test in hamsters with cerebellar ataxia; format: in vivo, hamster; settings: hamster with cerebellar ataxia; agent of Example 1, 0.5 ml/hamster intraperitoneally once a day for 56 days
Excerpt: (§1) Since NK-4 was confirmed to have a neurodegenerative inhibitory action in Experiment 1, hamsters with cerebellar ataxia (cerebellar ataxia is called “cerebellar A” and hamsters with cerebellar ataxia are called “hamsters with cerebellar A”, hereinafter) as a suitable model for human neurodegenerative diseases (e.g., spinal cerebellar degeneration) were subjected to examine the influence of NK-4 administration on their behaviors and brain tissues. Twenty-five hamsters with natural mutation (Nna1 inhibition), which are known to lose Purkinje's cells after three-weeks of age and then induce a spontaneous onset of kinetic motor ataxia after seven-weeks of age (see Akita K. et al., “J. Neurogenetics”, Vol. 21, pp. 19-29, 2007), had been fed at Hayashibara Biochemical Laboratories., Inc., Okayama, Japan, were randomly allocated to the test groups 1 to 5, five heads in each group, as shown in Table 2. Prior to the onset of cerebellar A (at three-weeks of age), PBS was started to administer to the hamsters in the test group 1 at a dose of 10 ml/kg/day. Prior to the onset of cerebellar A (at three-weeks of age), NK-4 was started to be administered to the hamsters in the test groups 2 to 4 at a daily dose of 20 μg/kg, 100 μg/kg or 500 μg/kg. “IGF-1, human, a product name of insulin-like growth factor, commercialized by Assaypro LLC, MO, USA. These administered ingredients were intraperitoneally administered daily to hamsters once a day up to 10-weeks of age. The degree of symptom of cerebellar A and the improvement effect on the symptom by NK-4 were evaluated with an index of improvement in motor coordination of hamsters by conducting once a week the later described rotarod test and the slant tolerance test. At the age of 10-weeks, the hamsters were subjected to counting the falling down frequency and extracted their brains, which were then histologically evaluated. In parallel, the concentration of glutamic acid in the bloods and cerebrospinal fluids (CSF) of the hamsters was assayed. As a test group 6, five normal hamsters, with the same age as the hamsters with cerebellar A used in the test groups 1 to 5, were provided and tested similarly as the hamsters with cerebellar A in such a manner of intraperitoneally administering PBS to them at a dose of 10 ml/kg/day once a day up to 10-weeks of age.
Hamsters were placed on a slope-angle-variable-board while keeping their heads upward, followed by determining the angle for allowing the hamsters to keep staying thereupon for five seconds for use as an endurable-slant-slope-angle test (see Rivlin et al., “J. Neurosurg.”, Vol. 47, pp. 577-581, […]). The initial slope angle was set to 25 degrees and increased by 5 degrees step by step. When a tested hamster in a static condition fell down within five seconds, the slope angle was decreased by one degree step by step, followed by judging the angle that allows the hamster to keep static staying for five seconds, measuring the tolerable slant-slope-angle, and averaging the data for five heads in each group.
Similarly as in Experiment 2, 130 hamsters with cerebellar ataxia, born within the same week and 3-weeks of age, were randomly divided into 13 groups, consisting of 10 hamsters, respectively. […] The hamsters (10 heads) in the remaining one group were intraperitoneally administered from their age of 3- to 10-weeks with a sterilized 10% maltose solution (pyrogen-free) in an amount of 0.5 ml/hamster (control) once a day for 56 days At the next day after the end of the administration, body weight of each hamster was weighed, followed by performing rotarod test, slope endurance test, and counting of falling down frequency. The types of compounds applied to each group and the results are in Table 25.

[4] = system: hamsters with cerebellar ataxia; experiment: Rotarod test in hamsters with cerebellar ataxia; format: in vivo, hamster; settings: for improving effect on motor coordination (in words): cerebellar ataxia hamsters, agents of Example 1 compared among pentamethine cyanine dye compounds; for Time of falling from rotarod: hamster with cerebellar ataxia, agent of Example 1, 0.5 ml/hamster intraperitoneally once a day for 56 days
Excerpt: as §1
As an index for coordinated movement, it was used a duration time of hamster's movement to staying on a rotarod by locomotion in synchronization with the turn of the rotarod; placing a hamster on an apparatus with a rotarod (having a diameter of 60 mm, prepared by Hayashibara Biochemical Laboratories, Inc., Okayama, Japan), turning at a constant rate of six rpm, and measuring the time until the hamster falls down from the rotarod (see Fernandez et al., “Proc. Natl. Acad. Sci. USA”, Vol. 95, pp. 1253-1258, 1998). The test was repeated six times for each hamster, where five-times of tests starting from the initiation of the test were made as a preliminary examination, and the time until each hamster fell down from the rotarod (called “falling time”, hereinafter) was measured, followed by averaging the falling times for each group consisting of five heads. The falling time was measured until 180 seconds. Based on the results, the relationship between the age and the falling time for each hamster with cerebellar A (test group 1) administered with PBS was graphed. […]
Similarly as in Experiment 2, 130 hamsters with cerebellar ataxia, born within the same week and 3-weeks of age, were randomly divided into 13 groups, consisting of 10 hamsters, respectively. […]

PC12-HS cells [5] = experiment: Evaluation B: neurite-outgrowth action in presence of NGF; format: cell-based, rat; settings: for Evaluation B: Neurite-outgrowth action: 50 μl of 400 ng/ml test sample solution per well + NGF final 5 ng/ml
[6] = compound concentration 25 ng/ml
[7] = compound concentration 50 ng/ml
[8] = compound concentration 100 ng/ml
[9] = compound concentration 200 ng/ml
[10] = compound concentration 80 ng/ml
[11] = compound concentration 400 ng/ml
[12] = compound concentration 2000 ng/ml
[13] = compound concentration 10000 ng/ml
[14] = no compound = 100%, final concentration 12.5 ng/ml
[15] = final concentration of compound 200 ng/ml
[16] = final concentration of compound 400 ng/ml
[17] = final concentration of compound 800 ng/ml
[18] = final concentration of compound 1600 ng/ml

Row | SMILES | Action of enhancing cell growth (%) (PC12-HS cells [1]; [6]) | Action of enhancing cell growth (%) (PC12-HS cells [1]; [7]) | Action of enhancing cell growth (%) (PC12-HS cells [1]; [8]) | Action of enhancing cell growth (%) (PC12-HS cells [1]; [9]) | Endurable-slant-slope-angle (°) [3] [°] | Time of falling from rotarod [4] [s] | Action on neurite outgrowth (%) (PC12-HS cells [5]; [10]) | Action on neurite outgrowth (%) (PC12-HS cells [5]; [11]) | Action on neurite outgrowth (%) (PC12-HS cells [5]; [12]) | Action on neurite outgrowth (%) (PC12-HS cells [5]; [13]) | Evaluation B: Neurite-outgrowth action (PC12-HS cells [5]; 3 days) | also measured
1 | CCCCN1C=C/C(=C/C=C(/C=C/c2cc[n+](CCCC)c3ccccc23)c2cc[n+](CCCC)c3ccccc23)c2ccccc21 [NK-26] | 275 ± 19 | 357 ± 35 | 210 ± 12 | 210 ± 12 | 53.5 ± 1.3 | 90.0 ± 7.1 | 72 ± 4 | 71 ± 7 | 25 ± 7 | 10< % |  | suppressing amyloid β fragment disorder [2]: actions of suppressing; improving effect on motor coordination (in words) [4]: particularly high improving effect on motor coordination
2 | CC[n+]1ccccc1/C=C/c1ccc(N(C)C)cc1 [NK-557] |  |  |  |  | 45.1 ± 3.7 | 39.9 ± 5.1 |  |  |  |  | ∘ (The test sample with a neurite outgrowth rate of 30% or higher was judged to be equivalent or more (∘) compared with NK-4) | Cell survival percentage (%) (PC12-HS cells [1]; final concentration 50 ng/ml): 110 ± 6%; Cell survival percentage (%) (PC12-HS cells [1]; final concentration 200 ng/ml): 241 ± 48%; Cell survival percentage (%) (PC12-HS cells [1]; final concentration 800 ng/ml): 184 ± 42%; Cell survival percentage (%) (PC12-HS cells [1]; [14]): 97 ± 25%; optimum concentration for exhibiting cell-growth-promoting action (PC12-HS cells [1]): 200 ng/mL; Rate of cells exhibiting neurite outgrowth (%) (PC12-HS cells [5]; [15]): 10> %; Rate of cells exhibiting neurite outgrowth (%) (PC12-HS cells [5]; [16]): 20 ± 2%; Rate of cells exhibiting neurite outgrowth (%) (PC12-HS cells [5]; [17]): 43 ± 5%; Rate of cells exhibiting neurite outgrowth (%) (PC12-HS cells [5]; [18]): 84 ± 42%
3 | CCCCCCCCCN1C(C)=CS\C1=C/C=C(\C=C\c1scc(C)[n+]1CCCCCCCCC)c1scc(C)[n+]1CCCCCCCCC.[I-].[I-] [NK-393] |  |  |  |  | 53.1 ± 1.5 | 86.5 ± 1.8 |  |  |  |  |  | Action of enhancing cell growth (%) (PC12-HS cells [1]; 100 μl/well of 100 ng/ml test solution, 3 days, control = 100): 550%; improving effect on motor coordination (in words) [4]: particularly high improving effect on motor coordination; Percentage (%) of cells with neurite outgrowth (PC12-HS cells [5]; 50 μl/well of 2 μg/ml test solution + NGF final 5 ng/ml, 3 days): 68%
4 | CCCCCCCN1C=CC(=CC=C(C=Cc2cc[n+](CCCCCCC)c3ccccc23)c2cc[n+](CCCCCCC)c3ccccc23)c2ccccc21.[I-].[I-] [NK-28] | 146 ± 10 | 111 ± 28 | 252 ± 65 | 470 ± 17 | 51.4 ± 2.2 | 69.0 ± 28 | 38 ± 1 | 64 ± 10 | 70 ± 11 | 46 ± 20% |  | 
5 | CCCCCCCCN1C=CC(=CC=C(C=Cc2cc[n+](CCCCCCCC)c3ccccc23)c2cc[n+](CCCCCCCC)c3ccccc23)c2ccccc21.[I-].[I-] [NK-147] | 122 ± 14 | 136 ± 30 | 163 ± 60 | 404 ± 76 | 49.3 ± 2.1 | 56.5 ± 9.8 | 32 ± 7 | 50 ± 5 | 70 ± 11 | 35 ± 14% |  | 
6 | CCN1/C(=C/C=C(/C=C/c2sc3ccccc3[n+]2CC)c2sc3ccccc3[n+]2CC)Sc2ccccc21.[I-].[I-] [NK-100] |  |  |  |  | 50.3 ± 1.9 | 61.9 ± 9.4 |  |  |  |  | ∘ (The test sample with a neurite outgrowth rate of 30% or higher was judged to be equivalent or more (∘) compared with NK-4) | Cell survival percentage (%) (PC12-HS cells [1]; final concentration 50 ng/ml): 288 ± 19%; Cell survival percentage (%) (PC12-HS cells [1]; final concentration 200 ng/ml): 202 ± 4%; Cell survival percentage (%) (PC12-HS cells [1]; final concentration 800 ng/ml): 82 ± 15%; Cell survival percentage (%) (PC12-HS cells [1]; [14]): 154 ± 156%; optimum concentration for exhibiting cell-growth-promoting action (PC12-HS cells [1]): 50 ng/mL; Rate of cells exhibiting neurite outgrowth (%) (PC12-HS cells [5]; [15]): 36 ± 2%; Rate of cells exhibiting neurite outgrowth (%) (PC12-HS cells [5]; [16]): 40 ± 8%; Rate of cells exhibiting neurite outgrowth (%) (PC12-HS cells [5]; [17]): 52 ± 7%; Rate of cells exhibiting neurite outgrowth (%) (PC12-HS cells [5]; [18]): 89 ± 6%
7 | COc1ccc2oc(/C=C/c3ccc(N(C)C)cc3)[n+](C)c2c1 [NK-1516] |  |  |  |  | 46.5 ± 2.9 | 42.4 ± 6.3 |  |  |  |  | ∘ (The test sample with a neurite outgrowth rate of 30% or higher was judged to be equivalent or more (∘) compared with NK-4) | 
8 | CCCN1C=CC(=CC=C(C=Cc2cc[n+](CCC)c3ccccc23)c2cc[n+](CCC)c3ccccc23)c2ccccc21.[I-].[I-] [NK-234] | 168 ± 45 |  |  |  |  |  | 24 ± 7 | 57 ± 7 | 61 ± 3 | 66 ± 20% |  | suppressing amyloid β fragment disorder [2]: actions of suppressing
9 | CN(C)c1ccc(/C=C/c2oc3ccccc3[n+]2C)cc1 [NK-528] |  |  |  |  | 43.9 ± 3.0 | 37.5 ± 11.2 |  |  |  |  | ∘ (The test sample with a neurite outgrowth rate of 30% or higher was judged to be equivalent or more (∘) compared with NK-4) | 

From US20120035187A1 (priority 2009, published 2012)
